Assays:
Assay type in all cases: in vivo, rat
[1] = Cold model of immunocompromised rats induced by cyclophosphamide: body weight; conditions: SD rats, Sample-1 150, Sample-2 75, Sample-3/-4/-5 150, Sample-6 30 mg/kg
From the text: (§1) […] were divided into 20 cages, 5 SD rats in each cage, 2 cages in each group, 1 cage for male and female respectively. After 7 days of adaptive growth, 70 rats were used for drug administration evaluation and the construction of rat upper respiratory tract infection model, and the remaining 10 rats were used for normal control. During the whole experiment, the animals were looked after and treated in strict accordance with the animal ethics law.
(§2) After the adaptive growth, the drug was given by gavage once a day for each SD rat. The Placebo group and the normal control group were given the same volume of drug solution (i.e. normal saline) every day for 4 weeks, i.e. 28 days.
(§3) 1) On the 14th day after gavage administration, rats in the model group were intraperitoneally injected with cyclophosphamide for 3 consecutive days and strengthened once on the 20th day to prepare the immunosuppressive model.
(§4) 2) On the 21st day, after the rats were placed in a low temperature environment overnight (4° C.), the cold symptoms such as burnout, decreased food intake and increased nasal secretion were found, which was regarded as successful modeling.
(§5) 3) During the period of normal administration, the administration was ended on the 28th day, and the rats were killed.
(§6) The body weight of rats was measured once a week. During the administration, the general conditions, behavioral characteristics and death status of rats in each group, such as appetite, hair color and body posture, were observed. Nasal secretion and body temperature were observed ever day.

[2] = tested on: cold model of immunocompromised rats; assay: Cold model of immunocompromised rats induced by cyclophosphamide: body temperature; conditions: SD rats cold model, Sample-1 150, Sample-2 75, Sample-3/-4/-5 150, Sample-6 30 mg/kg
From the text: as §1, §2, §3, §4, §5, §6

[3] = tested on: IL-1β, IFN-γ, IgG, IgM, sIgA; assay: Cold model rats: cytokines in serum and saliva by ELISA; conditions: SD rats cold model, gavage 28 days, Sample-1 150, Sample-2 75, Sample-3/-4/-5 150, Sample-6 30 mg/kg
Experimental: 1) On the second day after the last administration, the rats were anesthetized by intraperitoneal injection of 10% chloral hydrate with the anesthetic dosage of 0.35 ml/100 g;
2) The abdominal cavity was opened, and a 5 ml sterile syringe was inserted into the abdominal vein of the rats, and the venous blood was drawn:
3) The drawn venous blood was put into a heparin tube, mixed well, and left in a chromatography freezer at 4° C. overnight.
4) After centrifugation at 14000 rpm at 4° C. for 15 minutes, the supernatant was taken and stored at −80° C. for use.
2) SD rats were fixed in the supine and low head position, sterile cotton swabs were inserted into the upper respiratory tract of rats, dipped in rat saliva, and immediately placed in precooled normal saline and stored at −80° C. for use.
The final serum was used for IL-1β, IL-6, IL-12, IFN-γ, IgG, IgM, and saliva was used for the determination of sIgA. The determination steps were as follows:
1) taking out the ELISA kit from the refrigerator and balancing it at room temperature for 20 min;
3) after sealing the film with a film sealing plate, placing it in a 37° C. incubator for incubation for 30 min;
4) discarding the liquid in the wells, gently drying it, and adding 50 μL biotin labeled antibody working solution to each well, and incubating in a 37° C. incubator for 30 min;
5) carefully removing the sealing film, pouring out the liquid in the wells, gently spin drying it, adding washing liquid into each well, standing at room temperature for 30 seconds and then pouring it out, repeating this operation for 5 times and gently patting it dry;
6) adding 50 μL horseradish peroxidase labeled avidin working solution to each well, and incubating in a 37° C. incubator for 30 min;
7) pouring out the liquid in the wells, gently spin drying it, adding washing liquid into each well, standing at room temperature for 30 seconds and then pouring it out, repeating this operation for 5 times and gently patting it dry; and
8) adding […] color developing solution to each well in turn, and developing color in a 37° C. incubator without light for 15 min;
9) adding 50 μL termination solution to each well to terminate the reaction, then zeroing the blank wells and measure the absorbance (OD value) of each well at 450 nm wavelength, where the determination shall be carried out within 15 min after the termination solution is added.

## O=C1O[C@H]([C@@H](O)CO)C(O)=C1O [Sample-6, VC]
[1]; week 1
  weight week 1: 200.37 ± 8.23 g
[1]; week 2
  weight week 2: 217.99 ± 12.26 g
[1]; week 3
  weight week 3: 193.64 ± 12.51 g
[1]; week 4
  weight week 4: 173.58 ± 7.48 g
[1]; gavage once a day 28 days, week 0
  weight week 0: 184.61 ± 7.84 g
[2]; Day 15
  temperature Day 15: 36.84 ± 0.22
[2]; Day 16
  temperature Day 16: 36.78 ± 0.48
[2]; Day 17
  temperature Day 17: 36.9 ± 0.33
[2]; Day 18
  temperature Day 18: 36.6 ± 0.19
[2]; Day 19
  temperature Day 19: 36.63 ± 0.28
[2]; Day 20
  temperature Day 20: 36.69 ± 0.22
[2]; Day 21
  temperature Day 21: 36.41 ± 0.3
[2]; Day 22
  temperature Day 22: 37.89 ± 0.53
[2]; Day 23
  temperature Day 23: 38.23 ± 0.64
[2]; Day 24
  temperature Day 24: 38.11 ± 0.56
[2]; Day 25
  temperature Day 25: 37.87 ± 0.4
[2]; Day 26
  temperature Day 26: 37.41 ± 0.4
[2]; Day 27
  temperature Day 27: 37.32 ± 0.28
[2]; Day 28
  temperature Day 28: 37.62 ± 0.31
[3]; final serum
  serum IFN-γ content: 170.49 ± 21.44 pg/mL
  serum IL-β content: 100.12 ± 27.51 pg/mL
  serum IgG content: 606.77 ± 259.06 µg/mL
  serum IgM content: 177.1 ± 35.59 µg/mL
[3]; upper respiratory tract saliva
  saliva sIgA content: 13.9 ± 4.08 µg/mL
